Assay results as given in the NIST ThermoML archive (doi:10.1016/j.tca.2015.06.017).

Experiment: xn = mol fraction of the nth substance listed
Details: 303.15 K, Liquid, Vibrating tube method

CCC(C)Cl (stereo not given) [2-chlorobutane] + CCCCCCC
mass density [kg/m3]
Details | 100 kPa | 2000 kPa | 5000 kPa | 7000 kPa | 10000 kPa | 20000 kPa | 30000 kPa | 40000 kPa | 50000 kPa
x2 = 0.0524 | 847.91 | 850.2 | 853.75 | 856.02 | 859.35 | 869.52 | 878.79 | 887.22 | 894.96
x2 = 0.1018 | 835.49 | 837.83 | 841.34 | 843.56 | 846.8 | 857 | 866.11 | 874.41 | 882.16
x2 = 0.1968 | 813.06 | 815.38 | 818.82 | 820.99 | 824.17 | 834.1 | 843.05 | 851.38 | –
x2 = 0.3006 | 790.36 | 792.62 | 795.97 | 798.15 | 801.36 | 811.1 | 819.96 | 827.93 | –
x2 = 0.4029 | 769.73 | 771.9 | 775.25 | 777.41 | 780.55 | 790.07 | 798.75 | 806.62 | –
x2 = 0.5017 | 751.19 | 753.34 | 756.66 | 758.81 | 761.91 | 771.19 | 779.74 | 787.49 | –
x2 = 0.6008 | 733.91 | 736.05 | 739.33 | 741.44 | 744.48 | 753.6 | 761.98 | 769.55 | –
x2 = 0.7023 | 717.52 | 719.64 | 722.77 | 724.78 | 727.81 | 736.87 | 745.03 | 752.43 | –
x2 = 0.7977 | 703.14 | 705.19 | 708.3 | 710.27 | 713.22 | 722.07 | 730.14 | 737.42 | –
x2 = 0.8986 | 688.99 | 691.08 | 694.14 | 696.07 | 699 | 707.69 | 715.59 | 722.69 | –
x2 = 0.952 | 681.86 | 683.95 | 686.97 | 688.88 | 691.77 | 700.38 | 708.22 | 715.28 | –
